Marks after values point to notes of the source that are not given here.

This note sets out measurements from patent publication US7994209B2, “3-phenoxymethylpyrrolidine compounds” (Theravance, Inc., priority 2009, dated 2011).

One test deals with hNET (Homo sapiens, UniProt P23975). Description: fluorescence-based norepinephrine reuptake inhibition assay (Tsuruda et al. 2010; data indicated by an asterisk). It counts as cell-based. Set-up: expressed in transfected cells; host or cells: HEK-293. The settings on record: norepinephrine reuptake inhibition, fluorescence-based assay (values with asterisk); for IC50: read-out: NET pIC50 (converted).
Chain of hNET (P23975 whole entry): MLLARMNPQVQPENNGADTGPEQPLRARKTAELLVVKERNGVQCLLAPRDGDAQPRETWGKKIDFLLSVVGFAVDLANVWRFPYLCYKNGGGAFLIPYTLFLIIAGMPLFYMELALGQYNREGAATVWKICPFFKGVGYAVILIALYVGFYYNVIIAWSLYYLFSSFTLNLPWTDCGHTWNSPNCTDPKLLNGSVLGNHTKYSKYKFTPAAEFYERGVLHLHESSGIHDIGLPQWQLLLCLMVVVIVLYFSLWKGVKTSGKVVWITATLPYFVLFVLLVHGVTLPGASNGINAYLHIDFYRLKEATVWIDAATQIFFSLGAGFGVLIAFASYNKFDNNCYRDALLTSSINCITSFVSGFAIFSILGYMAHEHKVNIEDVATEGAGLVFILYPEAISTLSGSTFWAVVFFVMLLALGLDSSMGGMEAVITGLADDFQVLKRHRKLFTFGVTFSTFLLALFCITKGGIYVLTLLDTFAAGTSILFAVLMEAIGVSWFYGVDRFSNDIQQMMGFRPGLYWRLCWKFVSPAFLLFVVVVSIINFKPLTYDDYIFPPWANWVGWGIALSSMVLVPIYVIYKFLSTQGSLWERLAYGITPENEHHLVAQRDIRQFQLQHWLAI

The target of a further test is hSERT (Homo sapiens, UniProt P31645). The test can be described thus: fluorescence-based serotonin reuptake inhibition assay (Tsuruda et al. 2010; data indicated by an asterisk). It counts as cell-based. Set-up: expressed in transfected cells; host or cells: HEK-293. The settings on record: fluorescence-based assay (values with asterisk), read-out: SERT pIC50 (converted).
Chain of hSERT (P31645 whole entry): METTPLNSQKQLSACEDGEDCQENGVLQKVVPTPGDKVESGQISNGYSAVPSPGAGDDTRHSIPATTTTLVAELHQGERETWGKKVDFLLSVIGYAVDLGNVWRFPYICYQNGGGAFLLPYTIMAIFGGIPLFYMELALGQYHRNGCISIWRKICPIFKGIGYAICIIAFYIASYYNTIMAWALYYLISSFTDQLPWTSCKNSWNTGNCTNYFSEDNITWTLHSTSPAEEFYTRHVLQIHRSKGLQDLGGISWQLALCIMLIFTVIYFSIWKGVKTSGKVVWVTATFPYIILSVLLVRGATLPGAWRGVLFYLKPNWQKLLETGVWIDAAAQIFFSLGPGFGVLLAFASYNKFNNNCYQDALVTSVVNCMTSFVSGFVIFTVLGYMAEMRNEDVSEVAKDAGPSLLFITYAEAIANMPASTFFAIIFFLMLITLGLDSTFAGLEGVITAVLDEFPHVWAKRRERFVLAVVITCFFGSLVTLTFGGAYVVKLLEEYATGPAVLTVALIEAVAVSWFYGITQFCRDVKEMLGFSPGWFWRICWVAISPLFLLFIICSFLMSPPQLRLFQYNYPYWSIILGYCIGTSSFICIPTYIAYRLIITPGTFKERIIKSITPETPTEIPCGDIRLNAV

As to `CC(C)[C@H](Oc1cccc(F)c1Cl)[C@@H]1CCNC1` [Example 6-20, (R)-3-[(S)-1-(2-Chloro-3-fluorophenoxy)-2-methylpropyl]pyrrolidine], the IC50 at hNET and on hSERT was at most 100 nM throughout.

`CC(C)[C@H](Oc1cccc(Cl)c1Cl)[C@@H]1CCNC1` [Example 6-16, (R)-3-[(S)-1-(2,3-Dichlorophenoxy)-2-methylpropyl]pyrrolidine]: the IC50 on hNET and at hSERT was at most 100 nM throughout.

As for `Fc1c(Cl)ccc(O[C@H](C2CC2)[C@H]2CCNC2)c1F` [Example 16-49, (S)-3-[(R)-(4-Chloro-2,3-difluorophenoxy)cyclopropylmethyl]pyrrolidine], the IC50 at hNET and at hSERT was at most 10 nM in each case.

`CC[C@H](Oc1cc(C)c(Cl)c(C)c1)[C@H]1CCNC1` [Example 2-15, (S)-3-[(S)-1-(4-Chloro-3,5-dimethylphenoxy)propyl]pyrrolidine]: the IC50 was at most 100 nM on hNET and at most 10 nM at hSERT.

Take `CC(C)[C@@H](Oc1cccc(Cl)c1F)[C@H]1CCNC1` [Example 6-4, (S)-3-[(R)-1-(3-Chloro-2-fluorophenoxy)-2-methylpropyl]pyrrolidine]: the IC50 on hNET and at hSERT was at most 10 nM each time.

With `Clc1cc(Cl)cc(OC(C2CCCC2)C2CCNC2)c1` (stereo not shown) [Example 18-9, 3-[Cyclopentyl-(3,5-dichlorophenoxy)methyl]pyrrolidine], the IC50 at hNET and at hSERT was at most 10 nM in each case.

For `CCC[C@H](Oc1ccc(Cl)cc1OC)[C@H]1CCNC1` [Example 4-72, (S)-3-[(S)-1-(4-Chloro-2-methoxyphenoxy)butyl]pyrrolidine], the IC50 at hNET and at hSERT was at most 10 nM in each case.

Consider `CC(C)[C@@H](Oc1cccc2ccccc12)[C@H]1CCNC1` [Example 14-6, (S)-3-[(R)-2-Methyl-1-(naphthalen-1-yloxy)propyl]pyrrolidine], for which the IC50 at hNET and on hSERT was at most 10 nM throughout.

Consider `FC(F)(F)c1c(Cl)cccc1OC(C1CCCC1)C1CCNC1` (single isomer, unassigned) [Example 18-3, 3-[(3-Chloro-2-trifluoromethylphenoxy)cyclopentylmethyl]pyrrolidine], for which the IC50 on hNET is at most 10 nM; on hSERT, at most 100 nM.

As to `Cc1cc(O[C@H](C(C)C)[C@H]2CCNC2)ccc1Cl` [Example 6-71, (S)-3-[(R)-1-(4-Chloro-3-methylphenoxy)-2-methylpropyl]pyrrolidine], the IC50 at hNET is at most 100 nM; at hSERT, at most 10 nM.

`CC[C@H](Oc1ccc(C)c(F)c1F)[C@H]1CCNC1` [Example 2-51, (S)-3-[(S)-1-(2,3-Difluoro-4-methylphenoxy)propyl]pyrrolidine]: the IC50 on hNET and on hSERT was at most 10 nM each time.

As for `CC(C)[C@@H](Oc1ccc(Cl)cc1Cl)[C@@H]1CCNC1` [Example 6-23, (R)-3-[(R)-1-(2,4-Dichlorophenoxy)-2-methylpropyl]pyrrolidine], the IC50 on hNET is at most 100 nM; at hSERT it was at most 10 nM.

Take `CC[C@@H](Oc1cccc(Cl)c1C)[C@H]1CCNC1` [Example 2-65, (S)-3-[(R)-1-(3-Chloro-2-methylphenoxy)propyl]pyrrolidine]: the IC50 at hNET and on hSERT was at most 10 nM throughout.

Consider `Cc1cc(Cl)ccc1O[C@H](C(C)C)[C@@H]1CCNC1` [Example 6-46, (R)-3-[(R)-1-(4-Chloro-2-methylphenoxy)-2-methylpropyl]pyrrolidine], for which the IC50 at hNET and on hSERT was at most 100 nM each time.

`Cc1ccc(OC(C2CCCC2)C2CCNC2)c(Cl)c1` (mixture of isomers) [Example 17, 3-[(2-Chloro-4-methylphenoxy)cyclopentylmethyl]pyrrolidine]: the IC50 on hNET and on hSERT was at most 10 nM in each case.

Take `CC(C)[C@@H](Oc1ccc(Cl)c(Cl)c1F)[C@H]1CCNC1` [Example 6-8, (S)-3-[(R)-1-(3,4-Dichloro-2-fluorophenoxy)-2-methylpropyl]pyrrolidine]: the IC50 at hNET was at most 100 nM; at hSERT it was at most 10 nM.

As to `CC(C)[C@@H](Oc1ccc(Cl)c(F)c1)[C@H]1CCNC1` [Example 6-57, (S)-3-[(R)-1-(4-Chloro-3-fluorophenoxy)-2-methylpropyl]pyrrolidine], the values for the IC50 on hNET and on hSERT were at most 100 nM and at most 10 nM, respectively.

Consider `FC(F)(F)c1c(Cl)cccc1OC(C1CCCC1)C1CCNC1` (single isomer, unassigned) [Example 18-2, 3-[(3-Chloro-2-trifluoromethylphenoxy)cyclopentylmethyl]pyrrolidine], for which the IC50 is at most 100 nM at hNET and at most 10 nM at hSERT.

With `CCC[C@@H](Oc1ccc(Cl)c(F)c1)[C@H]1CCNC1` [Example 4-17, (S)-3-[(R)-1-(4-Chloro-3-fluorophenoxy)butyl]pyrrolidine], the IC50 at hNET is at most 100 nM; on hSERT, at most 10 nM.

On to `Clc1cc(Cl)cc(OC(C2CCCC2)C2CCNC2)c1` (stereo not shown) [Example 18-10, 3-[Cyclopentyl-(3,5-dichlorophenoxy)methyl]pyrrolidine], for which the “NET pIC50” value on hNET was “≧8.0*”. In addition, the IC50 at hSERT is at most 100 nM.

On to `Clc1cccc(Cl)c1OC(C1CCCC1)C1CCNC1` (stereo not shown) [Example 18-8, 3-[Cyclopentyl-(2,6-dichlorophenoxy)methyl]pyrrolidine], for which the IC50 on hNET is at most 10 nM; on hSERT, at most 100 nM.

In the case of `Cc1c(Cl)cccc1O[C@H](C(C)C)[C@@H]1CCNC1` [Example 6-41, (R)-3-[(R)-1-(3-Chloro-2-methylphenoxy)-2-methylpropyl]pyrrolidine], the IC50 at hNET is at most 100 nM; on hSERT, at most 10 nM.

For the compound `CC(C)C[C@H](Oc1c(F)ccc(Cl)c1F)[C@H]1CCNC1` [Example 10-60, (S)-3-[(S)-1-(3-Chloro-2,6-difluorophenoxy)-3-methylbutyl]pyrrolidine], the IC50 on hNET and on hSERT was at most 10 nM in each case.

With `CC(C)[C@@H](Oc1ccc(Cl)c(Cl)c1)[C@@H]1CCNC1` [Example 6-64, (R)-3-[(R)-1-(3,4-Dichlorophenoxy)-2-methylpropyl]pyrrolidine], the figures for the IC50 on hNET and at hSERT were at most 100 nM and at most 10 nM, respectively.

Turning to `CCC[C@@H](Oc1cccc(Cl)c1F)[C@@H]1CCNC1` [Example 4-47, (R)-3-[(R)-1-(3-Chloro-2-fluorophenoxy)butyl]pyrrolidine], the IC50 is at most 10 nM on hNET and at most 100 nM on hSERT.

`CCC[C@H](Oc1cc(F)cc(Cl)c1)[C@H]1CCNC1` [Example 4-11, (S)-3-[(S)-1-(3-Chloro-5-fluorophenoxy)butyl]pyrrolidine]: the IC50 was at most 10 nM on hNET and at most 100 nM on hSERT.

On to `CCC[C@H](Oc1cccc(C)c1C)[C@H]1CCNC1` [Example 4-62, (S)-3-[(S)-1-(2,3-Dimethylphenoxy)butyl]pyrrolidine], for which the IC50 on hNET and at hSERT was at most 10 nM throughout.

Regarding `Cc1c(Cl)cccc1O[C@@H](C(C)C)[C@@H]1CCNC1` [Example 6-42, (R)-3-[(S)-1-(3-Chloro-2-methylphenoxy)-2-methylpropyl]pyrrolidine], the IC50 is at most 100 nM on hNET and at most 10 nM on hSERT.

Regarding `CCC[C@@H](Oc1cccc(Cl)c1F)[C@H]1CCNC1` [Example 4-46, (S)-3-[(R)-1-(3-Chloro-2-fluorophenoxy)butyl]pyrrolidine], the IC50 was at most 10 nM at hNET and at most 100 nM on hSERT.

`CC(C)[C@H](Oc1cccc(Cl)c1F)[C@H]1CCNC1` [Example 6-3, (S)-3-[(S)-1-(3-Chloro-2-fluorophenoxy)-2-methylpropyl]pyrrolidine]: the IC50 was at most 10 nM at hNET and at most 100 nM on hSERT.

In the case of `Cc1cc(O[C@@H](C2CC2)[C@H]2CCNC2)cc(C)c1Cl` [Example 16-101, (S)-3-[(S)-(4-Chloro-3,5-dimethylphenoxy)cyclopropylmethyl]pyrrolidine], the figures for the IC50 at hNET and at hSERT were at most 100 nM and at most 10 nM, respectively.

As for `Fc1cc(Cl)cc(O[C@@H](C2CC2)[C@H]2CCNC2)c1Cl` [Example 16-57, (S)-3-[(S)cyclopropyl-(2,5-dichloro-3-fluorophenoxy)methyl]pyrrolidine], the IC50 at hNET and at hSERT was at most 100 nM each time.

Take `CC[C@H](Oc1cc(Cl)cc(OC)c1)[C@H]1CCNC1` [Example 2-20, (S)-3-[(S)-1-(3-Chloro-5-methoxyphenoxy)propyl]pyrrolidine]: the IC50 on hNET and on hSERT was at most 100 nM throughout.

For `CC[C@@H](Oc1cccc(Cl)c1C(F)(F)F)[C@H]1CCNC1` [Example 2-74, (S)-3-[(R)-1-(3-Chloro-2-trifluoromethylphenoxy)propyl]pyrrolidine], the IC50 was at most 100 nM on hNET and at most 10 nM on hSERT.

Take `CCC[C@H](Oc1ccc(Cl)c(C)c1)[C@H]1CCNC1` [Example 4-16, (S)-3-[(S)-1-(4-Chloro-3-methylphenoxy)butyl]pyrrolidine]: the IC50 at hNET and at hSERT was at most 10 nM each time.

With `CC[C@@H](Oc1ccc(Cl)c(C)c1)[C@H]1CCNC1` [Example 2-14, (S)-3-[(R)-1-(4-Chloro-3-methylphenoxy)propyl]pyrrolidine], the IC50 on hNET was at most 100 nM; on hSERT, at most 10 nM.

With `Cc1cc(O[C@@H](CC(C)C)[C@H]2CCNC2)ccc1Cl` [Example 10-75, (S)-3-[(S)-1-(4-Chloro-3-methylphenoxy)-3-methylbutyl]pyrrolidine], the IC50 on hNET and at hSERT was at most 10 nM throughout.

`CCC[C@@H](Oc1ccc(Cl)c(Cl)c1F)[C@H]1CCNC1` [Example 4-51, (S)-3-[(R)-1-(3,4-Dichloro-2-fluorophenoxy)butyl]pyrrolidine]: the IC50 at hNET and at hSERT was at most 10 nM throughout.
